From patent US20180000778A1, “SMALL MOLECULE ANTAGONISTS OF DUSP5 AND METHODS OF USE” (THE MEDICAL COLLEGE OF WISCONSIN, INC., priority 2015, published 2018)

Experiments:
full-length DUSP5 = target: T1, full-length DUSP5 (Homo sapiens, UniProt Q16690); experiment: ERK dephosphorylation assay, full-length DUSP5 with pERK2 substrate, western blot; assay type: biochemical
T1 construct: an assay was development using ERK2 and full-length DUSP5
T1 sequence (Q16690 1-384): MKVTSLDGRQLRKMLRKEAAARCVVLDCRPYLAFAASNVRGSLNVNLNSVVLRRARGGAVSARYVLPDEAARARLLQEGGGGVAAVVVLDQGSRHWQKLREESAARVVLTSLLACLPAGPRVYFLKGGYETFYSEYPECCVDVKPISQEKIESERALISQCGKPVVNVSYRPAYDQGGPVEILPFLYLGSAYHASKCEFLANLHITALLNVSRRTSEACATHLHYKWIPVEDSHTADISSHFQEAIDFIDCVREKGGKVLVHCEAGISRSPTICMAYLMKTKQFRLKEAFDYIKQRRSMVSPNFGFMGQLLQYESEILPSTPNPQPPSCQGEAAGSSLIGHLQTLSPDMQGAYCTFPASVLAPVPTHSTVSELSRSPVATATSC
Experimental: ERK Dephosphorylation Assay.
For this assay, 10 ng of GST-tagged recombinant phosphorylated ERK2 (R&D Systems, 1230-KS) was incubated with and without the indicated DUSP5 proteins (0.5 nM final concentration) for 15 min at room temperature, with or without the indicated drugs. The reactions were halted with 2× Laemmli sample buffer and subjected to SDS-PAGE. The proteins were transferred to polyvinylidene difluoride (PVDF) and immunoblotted using antibodies to pERK (Cell Signaling Tech., #9106) and Total ERK (Cell Signaling Tech., #9102). Bound antibodies were visualized using horseradish peroxidase-linked anti-mouse IgG (Cell Signaling Tech, #7076S) and anti-rabbit IgG (Cell Signaling Tech, #7074S), respectively, and ECL reagents (Pierce, 34708) according to the manufacturer's protocol. IC50s were calculated using GraphPad Prism 6 software.
And, the native substrate for DUSP5 is the pERK2 protein, which is much larger and capable of a more complicated range of inter-molecular interactions that the pNPP substrate (which is intended only to mimic the phospho-tyrosine of pERK). […] To this end, an assay was development using ERK2 and full-length DUSP5, monitoring pERK levels in a western blot, as a function of pERK2 substrate concentration. […] This surprising increase in potency for CSD3-2320 (but not NTS) with full length DUSP5 underscores the importance of performing secondary assays with biologically relevant forms of enzyme and substrate.

[1] = Aggregation of compounds (nephelometry; detergent treatment); assay type: physicochemical
Experimental: Nephelometry is a technique for measuring the relative aggregation of particles in solution, based on the light-scattering properties of molecular aggregates (30). To explore the ability of the chemicals studied herein to form aggregates, which can lead to artifactual inhibition effects, nephelometry was performed. Compounds were tested for aggregation in 96-well plates using a buffer containing 100 mM Tris base, 100 mM sodium chloride, and 5 mM magnesium chloride at pH 7.5. Each compound analyzed in these experiments contained concentrations of compound ranging from 10-100 μM, recorded in quadruplet. Each plate was analyzed at two separate gain values of 52 and 72. Data were collected using a BMG NEPHELOstar Plus, equipped with a 635 nm laser.
To investigate whether Suramin aggregates in solution, a property often investigated with small molecules, we performed detergent treatment assays. […] NTS and Suramin were compared using DUSP5 PD IC50 assays performed with and without detergent. […] We concluded that Suramin forms aggregates in vitro which can lead to non-specific protein inhibition effects. Beyond any adverse implications for repurposing Suramin in this project, the aggregation phenomenon raises more global concerns regarding the current clinical use of Suramin, and may in part explain some of the known toxicity associated with Suramin (32).

DUSP22 (MKPX) = DUSP22 (MKPX) (Homo sapiens, UniProt Q9NRW4); experiment: Phosphatase profiling, pNPP substrate; assay type: biochemical; settings: 30 μM, triplicate; negative = inhibition; listed as CSDDD2320
DUSP22 (MKPX), sequence (Q9NRW4 whole entry, species assumed): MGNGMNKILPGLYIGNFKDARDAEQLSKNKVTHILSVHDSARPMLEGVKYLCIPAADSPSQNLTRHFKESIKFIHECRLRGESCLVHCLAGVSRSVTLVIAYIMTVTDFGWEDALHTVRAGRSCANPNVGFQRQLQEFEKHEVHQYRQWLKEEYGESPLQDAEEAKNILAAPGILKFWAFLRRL
Experimental: (§1) Assays were performed to profile compound CSDDD2320 against 21 phosphatase targets at 1 concentration (30 μM) in triplicate measurements. The aim was to identify whether the compound can affect the activity of the various phosphatase targets selected.
(§2) Protein Phosphatase Assay: The DUSP22, PTPN2 (TC-PTP), PTPN7 (LC-PTP), PTPRA (LRP), PTPRC (CD45), PTPRE, PTPRS, PTPN1(PTP1B) and PTPN13(FAP-1) phosphatase activity was determined by performing assays at 37° C. for 15 minutes in a final volume of 100 μl according to the following assay reaction recipe:
(§3) Component 1. 5 μl of diluted active protein phosphatase
(§4) Component 2. 50 μl of 1.5 mM pNPP substrate assay solution
(§5) Component 3. 25 μl of phosphatase assay buffer
(§6) Component 4. 20 μl of compound (150 μM) or 10% DMSO
(§7) The assay was started by incubating the reaction mixture at 37° C. for 15 minutes. After the 15 minute incubation period, the assay was terminated by the addition of 25 μl of 2N NaOH stopping solution. The absorbance of the reaction solution was measured in a spectrophotometer at 405 nm. Blank control was set up that included all the assay components except the addition of the pNPP substrate (replaced with equal volume of phosphatase assay buffer). The corrected activity for various phosphatase targets was determined by removing the blank control value.

PTPN1 (PTP1B) = PTPN1 (PTP1B) (Homo sapiens, UniProt P18031); experiment: Phosphatase profiling, pNPP substrate; assay type: biochemical; settings: 30 μM, triplicate; negative = inhibition
PTPN1 (PTP1B), sequence (P18031 whole entry, species assumed): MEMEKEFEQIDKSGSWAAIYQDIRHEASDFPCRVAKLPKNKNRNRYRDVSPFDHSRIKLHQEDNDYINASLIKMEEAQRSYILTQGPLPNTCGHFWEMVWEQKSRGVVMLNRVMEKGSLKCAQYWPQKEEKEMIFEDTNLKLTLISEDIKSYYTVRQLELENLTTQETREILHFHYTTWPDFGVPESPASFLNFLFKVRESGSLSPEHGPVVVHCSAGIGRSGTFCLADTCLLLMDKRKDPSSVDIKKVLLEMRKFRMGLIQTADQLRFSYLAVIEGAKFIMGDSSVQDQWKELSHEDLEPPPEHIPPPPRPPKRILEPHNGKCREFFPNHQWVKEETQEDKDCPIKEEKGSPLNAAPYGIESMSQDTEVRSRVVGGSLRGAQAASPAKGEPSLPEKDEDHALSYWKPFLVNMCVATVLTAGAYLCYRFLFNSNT
Experimental: as §1, §2, §3, §4, §5, §6, §7

PTPN2 (TC-PTP) = PTPN2 (TC-PTP) (Homo sapiens, UniProt P17706); experiment: Phosphatase profiling, pNPP substrate; assay type: biochemical; settings: 30 μM, triplicate; positive = activation
PTPN2 (TC-PTP), sequence (P17706 whole entry, species assumed): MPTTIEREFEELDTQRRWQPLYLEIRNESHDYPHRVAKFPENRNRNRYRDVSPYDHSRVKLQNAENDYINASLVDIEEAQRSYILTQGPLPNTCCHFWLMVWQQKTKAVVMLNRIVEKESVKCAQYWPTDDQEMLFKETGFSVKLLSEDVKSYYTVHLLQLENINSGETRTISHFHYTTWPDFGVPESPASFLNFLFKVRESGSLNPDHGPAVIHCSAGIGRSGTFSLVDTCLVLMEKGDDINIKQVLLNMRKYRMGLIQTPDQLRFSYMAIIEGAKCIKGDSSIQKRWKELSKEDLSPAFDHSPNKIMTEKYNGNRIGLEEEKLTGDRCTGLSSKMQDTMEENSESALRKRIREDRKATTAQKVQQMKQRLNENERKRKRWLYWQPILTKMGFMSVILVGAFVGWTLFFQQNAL
Experimental: as §1, §2, §3, §4, §5, §6, §7

PTPN7 (LC-PTP) = PTPN7 (LC-PTP) (Homo sapiens, UniProt P35236); experiment: Phosphatase profiling, pNPP substrate; assay type: biochemical; settings: 30 μM, triplicate; positive = activation
Experimental: as §1, §2, §3, §4, §5, §6, §7

PTPRC (CD45) = PTPRC (CD45) (Homo sapiens, UniProt P08575); experiment: Phosphatase profiling, pNPP substrate; assay type: biochemical; settings: 30 μM, triplicate; negative = inhibition; listed as CSDDD2320
PTPRC (CD45), sequence (P08575 26-1306, species assumed): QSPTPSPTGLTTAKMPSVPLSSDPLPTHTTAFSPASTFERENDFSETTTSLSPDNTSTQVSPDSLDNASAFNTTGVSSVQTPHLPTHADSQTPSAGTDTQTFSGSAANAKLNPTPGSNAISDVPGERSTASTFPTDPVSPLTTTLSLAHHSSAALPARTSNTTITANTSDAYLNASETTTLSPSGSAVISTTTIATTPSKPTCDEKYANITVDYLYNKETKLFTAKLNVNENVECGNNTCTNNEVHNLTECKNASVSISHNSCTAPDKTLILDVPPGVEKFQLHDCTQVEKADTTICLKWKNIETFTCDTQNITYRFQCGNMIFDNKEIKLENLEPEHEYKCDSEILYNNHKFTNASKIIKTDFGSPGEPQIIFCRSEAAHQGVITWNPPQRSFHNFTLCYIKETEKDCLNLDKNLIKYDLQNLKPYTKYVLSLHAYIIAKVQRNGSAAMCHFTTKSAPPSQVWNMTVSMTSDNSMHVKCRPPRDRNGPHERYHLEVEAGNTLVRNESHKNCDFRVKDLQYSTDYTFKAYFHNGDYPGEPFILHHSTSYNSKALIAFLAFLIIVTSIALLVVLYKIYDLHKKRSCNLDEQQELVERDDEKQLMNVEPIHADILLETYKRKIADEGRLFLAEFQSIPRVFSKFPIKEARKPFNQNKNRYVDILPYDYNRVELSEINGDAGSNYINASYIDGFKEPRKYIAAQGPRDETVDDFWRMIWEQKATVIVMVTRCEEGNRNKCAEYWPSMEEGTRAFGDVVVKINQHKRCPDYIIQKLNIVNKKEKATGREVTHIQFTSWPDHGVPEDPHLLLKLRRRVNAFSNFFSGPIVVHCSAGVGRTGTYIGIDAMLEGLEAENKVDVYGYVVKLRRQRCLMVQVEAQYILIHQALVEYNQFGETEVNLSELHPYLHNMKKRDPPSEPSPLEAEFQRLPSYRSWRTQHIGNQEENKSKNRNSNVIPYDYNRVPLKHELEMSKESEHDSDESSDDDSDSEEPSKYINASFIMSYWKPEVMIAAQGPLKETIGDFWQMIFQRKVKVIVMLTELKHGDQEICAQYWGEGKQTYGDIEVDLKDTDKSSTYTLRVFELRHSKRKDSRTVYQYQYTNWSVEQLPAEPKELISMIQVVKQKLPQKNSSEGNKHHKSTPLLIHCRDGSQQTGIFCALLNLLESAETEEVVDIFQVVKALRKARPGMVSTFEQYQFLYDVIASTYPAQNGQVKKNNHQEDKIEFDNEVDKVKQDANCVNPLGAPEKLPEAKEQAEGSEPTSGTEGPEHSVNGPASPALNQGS
Experimental: as §1, §2, §3, §4, §5, §6, §7

PTPRE = PTPRE (Homo sapiens, UniProt P23469); experiment: Phosphatase profiling, pNPP substrate; assay type: biochemical; settings: 30 μM, triplicate; negative = inhibition; listed as CSDDD2320
PTPRE, sequence (P23469 20-700, species assumed): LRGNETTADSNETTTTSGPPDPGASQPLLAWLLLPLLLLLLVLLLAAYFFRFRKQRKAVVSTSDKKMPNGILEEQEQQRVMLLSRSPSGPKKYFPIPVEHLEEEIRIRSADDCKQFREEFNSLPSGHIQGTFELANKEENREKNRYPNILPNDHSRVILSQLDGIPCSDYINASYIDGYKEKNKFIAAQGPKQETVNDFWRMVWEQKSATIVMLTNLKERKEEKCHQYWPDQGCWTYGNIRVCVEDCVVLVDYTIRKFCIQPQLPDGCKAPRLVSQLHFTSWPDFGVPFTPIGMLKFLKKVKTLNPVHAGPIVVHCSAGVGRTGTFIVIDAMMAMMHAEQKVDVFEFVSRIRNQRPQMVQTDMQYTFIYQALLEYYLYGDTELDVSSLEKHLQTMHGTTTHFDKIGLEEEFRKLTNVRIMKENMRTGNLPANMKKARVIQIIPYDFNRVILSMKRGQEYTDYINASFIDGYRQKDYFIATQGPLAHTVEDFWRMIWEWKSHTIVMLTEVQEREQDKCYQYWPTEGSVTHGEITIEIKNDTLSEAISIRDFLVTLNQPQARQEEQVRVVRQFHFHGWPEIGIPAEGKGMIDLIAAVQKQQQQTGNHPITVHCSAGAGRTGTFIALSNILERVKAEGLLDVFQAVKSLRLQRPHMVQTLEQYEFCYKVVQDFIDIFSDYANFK
Experimental: as §1, §2, §3, §4, §5, §6, §7

PTPRS (PTP-sigma) = PTPRS (PTP-sigma) (Homo sapiens, UniProt Q13332); experiment: Phosphatase profiling, pNPP substrate; assay type: biochemical; settings: 30 μM, triplicate; negative = inhibition
PTPRS (PTP-sigma), sequence (Q13332 30-1948, species assumed): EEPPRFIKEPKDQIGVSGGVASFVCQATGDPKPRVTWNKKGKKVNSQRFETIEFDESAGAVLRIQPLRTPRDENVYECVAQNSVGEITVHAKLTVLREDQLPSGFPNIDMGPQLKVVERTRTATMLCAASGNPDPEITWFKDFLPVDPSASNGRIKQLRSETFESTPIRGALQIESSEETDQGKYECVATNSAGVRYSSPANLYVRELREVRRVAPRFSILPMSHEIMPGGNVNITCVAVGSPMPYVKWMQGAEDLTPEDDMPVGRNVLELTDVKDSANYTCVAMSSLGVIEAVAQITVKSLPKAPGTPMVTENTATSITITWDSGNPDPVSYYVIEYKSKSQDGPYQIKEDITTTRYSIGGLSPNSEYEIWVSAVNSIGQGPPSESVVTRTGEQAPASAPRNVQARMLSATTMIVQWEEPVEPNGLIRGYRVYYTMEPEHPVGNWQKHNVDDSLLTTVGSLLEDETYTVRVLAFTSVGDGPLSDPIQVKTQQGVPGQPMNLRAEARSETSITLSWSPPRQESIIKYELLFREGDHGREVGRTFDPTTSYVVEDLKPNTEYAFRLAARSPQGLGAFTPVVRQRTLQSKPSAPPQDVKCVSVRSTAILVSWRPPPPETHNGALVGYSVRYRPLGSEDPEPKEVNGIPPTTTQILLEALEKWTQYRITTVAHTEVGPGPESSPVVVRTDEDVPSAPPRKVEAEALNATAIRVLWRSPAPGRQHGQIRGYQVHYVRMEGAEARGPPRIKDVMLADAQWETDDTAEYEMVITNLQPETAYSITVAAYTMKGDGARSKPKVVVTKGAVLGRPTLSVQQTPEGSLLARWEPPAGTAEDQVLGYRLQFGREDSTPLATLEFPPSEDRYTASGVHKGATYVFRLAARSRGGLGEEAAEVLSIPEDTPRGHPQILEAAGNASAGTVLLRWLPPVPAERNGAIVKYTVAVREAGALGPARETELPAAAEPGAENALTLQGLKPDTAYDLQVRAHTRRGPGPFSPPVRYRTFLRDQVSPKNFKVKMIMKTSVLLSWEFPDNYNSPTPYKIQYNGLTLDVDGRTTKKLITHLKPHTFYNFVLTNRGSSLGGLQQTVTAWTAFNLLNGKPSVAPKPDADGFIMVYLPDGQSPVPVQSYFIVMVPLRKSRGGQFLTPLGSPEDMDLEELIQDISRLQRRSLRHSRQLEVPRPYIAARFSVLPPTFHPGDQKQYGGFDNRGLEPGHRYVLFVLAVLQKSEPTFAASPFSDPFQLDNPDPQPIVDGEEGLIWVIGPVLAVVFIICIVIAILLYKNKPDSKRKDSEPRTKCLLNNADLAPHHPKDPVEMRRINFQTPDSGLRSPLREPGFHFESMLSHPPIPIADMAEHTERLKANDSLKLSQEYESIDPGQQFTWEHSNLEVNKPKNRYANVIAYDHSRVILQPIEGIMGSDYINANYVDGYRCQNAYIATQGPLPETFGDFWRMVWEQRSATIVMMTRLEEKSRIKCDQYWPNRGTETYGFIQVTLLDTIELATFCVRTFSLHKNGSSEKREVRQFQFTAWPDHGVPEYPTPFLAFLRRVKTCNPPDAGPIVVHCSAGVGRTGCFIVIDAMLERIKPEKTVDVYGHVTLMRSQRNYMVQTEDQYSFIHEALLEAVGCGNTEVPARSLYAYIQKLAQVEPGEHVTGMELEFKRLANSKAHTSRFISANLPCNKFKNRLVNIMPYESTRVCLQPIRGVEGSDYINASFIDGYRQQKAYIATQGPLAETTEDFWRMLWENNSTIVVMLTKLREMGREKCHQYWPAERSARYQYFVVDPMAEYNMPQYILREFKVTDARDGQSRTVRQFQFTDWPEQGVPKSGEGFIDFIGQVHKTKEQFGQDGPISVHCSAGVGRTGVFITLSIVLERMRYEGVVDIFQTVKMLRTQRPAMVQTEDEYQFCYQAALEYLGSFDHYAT
Experimental: as §1, §2, §3, §4, §5, §6, §7

DUSP5 (PD)-WT = target: T2, DUSP5 (PD)-WT (Homo sapiens, UniProt Q16690); experiment: Phosphatase inhibition profiles (Table 4), initial rates; assay type: biochemical; settings: using ERK2 as substrate, read-out: IC50 DUSP5 (PD)-WT (mean ± SE)
T2 construct: hexa-histidine (N); made in house; host or cells: E. coli BL21(DE3)
T2 sequence (Q16690 178-319): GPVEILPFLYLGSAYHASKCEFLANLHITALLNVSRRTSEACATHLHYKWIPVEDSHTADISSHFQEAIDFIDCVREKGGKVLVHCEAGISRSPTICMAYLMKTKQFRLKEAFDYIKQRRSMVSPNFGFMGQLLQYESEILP

| fold increase in IC50 activity compared to NTS (full-length DUSP5; DUSP5/pERK assay) | IC50 (full-length DUSP5; full-length DUSP5, pERK substrate) [µM] | IC50 (full-length DUSP5; full-length DUSP5, pERK/ERK2 substrate) [µM] | aggregation [1] | % Change (activity change compared to control) (DUSP22 (MKPX)) [%] | % Change (activity change compared to control) (PTPN1 (PTP1B)) [%] | % Change (activity change compared to control) (PTPN2 (TC-PTP)) [%] | % Change (activity change compared to control) (PTPN7 (LC-PTP)) [%] | % Change (activity change compared to control) (PTPRC (CD45)) [%] | % Change (activity change compared to control) (PTPRE) [%] | % Change (activity change compared to control) (PTPRS (PTP-sigma)) [%] | IC50 (DUSP5 (PD)-WT) [µM] | Structure (SMILES) | activity in DUSP5:pERK assay, in words (full-length DUSP5; in vitro, western blot) |
| --- | --- | --- | --- | --- | --- | --- | --- | --- | --- | --- | --- | --- | --- |
|  |  |  |  |  |  |  |  |  |  |  |  | O=S(=O)([O-])c1ccc2[nH]c3c(S(=O)(=O)[O-])cc(S(=O)(=O)[O-])cc3c2c1.[Na+].[Na+].[Na+] [RR505, Carbazole-1,3,6-trisulfonic acid, Trisodium Salt] | sub-micromolar range |
| 1,000 fold | 0.538 ± 0.271 | 33 | no propensity to aggregate | −13 | −4 | 2 | 7 | −12 | −11 | −6 | > 1000 | O=S(=O)(O)c1cc(O)c2c(S(=O)(=O)O)cccc2c1 [RR527] |  |
